Assay results as given in patent publication US7754896B2, “Indol-alanine derivatives as selective S1P4-agonists” (Novartis AG, priority 2004, dated 2010).

Tests used:
Assay type in all cases: biochemical
[1] = tested on: CHO; experiment: GTPγS binding assay, membranes of wild type CHO cells
Description: Membrane proteins are prepared from wild type CHO-K1 and the CHO cell clones expressing human S1P4. To obtain 10-30 mg of membrane proteins, cells are grown in one large culture dish (500 cm^2) per cell clone to 80 and 90% confluence. The culture medium is removed and the cells are harvested on ice from the dish, by scraping in 20 ml cold HEPES 10 mM (pH 7.5) supplemented with 0.1% fatty acid-free bovine serum albumin (BSA) and protease inhibitors cocktail (one tablet per 50 ml, Roche Diagnostics, Rotkreuz). […] The protein concentration is determined using the Bio Rad Protein Assay and human IgG as standard. […]
The selection of the clones to be tested in the GTPγS assay is based on the real time PCR assays. […] The plates are then centrifuged for 10 minutes at 2000 rpm and counted with a TopCount instrument (Packard). […]
The compounds mentioned in this application are tested for specificity, e.g. the activity they have in the parental cell line prior transformation with the S1P4 cDNA and for selectivity on CHO cells lines transformed with the S1P1, S1P2, S1P3, and S1P5. […] For example, S1P4 specific and selective compounds may have an EC50 (apparent EC50) measured at S1P4 that is 10×, preferably 100× lower that that measured in wild type CHO cells or In cell expressing any of the other four S1P receptors.

[2] = molecular target: T1, S1P1 (Homo sapiens, UniProt P21453); experiment: GTPγS binding assay, S1P1; settings: CHO cells expressing S1P1
T1 construct: expressed in transfected cells
Source text: (§1) Human S1P1 (GenBank™ accession number M31210) and S1P3 (GenBank™ accession number X83864) cDNA containing the myc sequence in front to the human S1P1 and S1P3 sequences are inserted in the pcDNA 3.1 vector. The vectors are sequenced to completion to confirm the correctness of the construct. The human S1P2 (GI: 4090955, TREMBL: 0195136) is cloned by a PCR based method. Lung cDNA (marathon cDNA) is obtained (BD Biosciences Chontech, Palo Alto, Calif. 94303, USA). Following oligonucleotides are used for the PCR reaction: forward primer CACCATGGGCAGCTTGTACTCGGAGTACCT GM CCC CAA CM GGT CCA G (1 to 45, GenBank™ accession number AF034780) and reverse primer 5′-GATTCAGACCACCGTGTTGCCCTCCAG (1062 to 1039, GenBank™ accession number AF034780), the initiation of the translation (ATG) and the stop codon are underlined. […] The amplified product of around 1100 bp is analyzed by standard agarose gel-electrophoresis. […]
(§2) Membrane proteins are prepared from wild type CHO-K1 and the CHO cell clones expressing human S1P4. […] The protein concentration is determined using the Bio Rad Protein Assay and human IgG as standard. […]

[3] = molecular target: T2, S1P2 (Homo sapiens, UniProt O95136); experiment: GTPγS binding assay, S1P2; settings: CHO cells expressing S1P2
T2 construct: expressed in transfected cells
Source text: as §1, §2

Measured: EC50

T2 sequence (O95136 whole entry): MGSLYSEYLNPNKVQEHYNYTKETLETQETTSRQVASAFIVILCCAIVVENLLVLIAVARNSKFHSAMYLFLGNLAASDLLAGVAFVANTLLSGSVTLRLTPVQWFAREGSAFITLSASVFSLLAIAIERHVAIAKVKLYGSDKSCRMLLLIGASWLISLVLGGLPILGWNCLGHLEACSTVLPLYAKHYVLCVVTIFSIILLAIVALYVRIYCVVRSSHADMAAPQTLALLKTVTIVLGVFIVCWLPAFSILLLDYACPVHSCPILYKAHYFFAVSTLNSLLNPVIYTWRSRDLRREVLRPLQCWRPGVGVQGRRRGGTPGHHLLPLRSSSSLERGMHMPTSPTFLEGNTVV
T1 sequence (P21453 whole entry): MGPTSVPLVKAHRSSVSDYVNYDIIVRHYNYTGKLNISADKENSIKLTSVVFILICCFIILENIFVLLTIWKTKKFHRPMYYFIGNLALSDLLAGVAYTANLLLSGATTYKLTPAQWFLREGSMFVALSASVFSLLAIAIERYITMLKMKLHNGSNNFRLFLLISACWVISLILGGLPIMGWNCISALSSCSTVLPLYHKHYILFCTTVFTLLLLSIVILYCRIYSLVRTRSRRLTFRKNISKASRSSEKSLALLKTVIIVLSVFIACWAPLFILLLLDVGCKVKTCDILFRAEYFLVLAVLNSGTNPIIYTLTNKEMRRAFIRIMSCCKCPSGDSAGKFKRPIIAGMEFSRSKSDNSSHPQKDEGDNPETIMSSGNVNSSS

NC(CNC(=O)c1cc2c(-c3ccccc3Cc3ccccc3)cccc2[nH]1)C(=O)O (stereo not drawn) [Example 2]
> 10 µM: all assays above
